Results published in patent US20020115724A1, “Methods and agents for inhibiting protein aging” (priority 1985, published 2002).
Where a name gives a salt, the structure may show the parent alone. Read-outs that look alike come from different tables or passages of the source.

Experiments:
calf skin collagen [1] = assay: Calf skin collagen crosslinking by glucose: cyanogen bromide fragments on SDS-polyacrylamide gel; assay type: biochemical; details: 140 mM glucose, 200 mM aminoguanidine, 3 weeks, 35° C.; Lane B
Experimental: (§1) Collagen from samples of calf skin were extracted into acetic acid and then precipitated with 0.6 M sodium chloride. These procedures removed from the solution skin collagen that was already permanently crosslinked or denatured. Native collagen fibrils were reformed by dialysis against 0.02M phosphate buffer, and these were incubated for 3 weeks at 35° C. in the presence of 140 mM glucose and with or without 200 mM aminoguanidine. After incubation, the samples were dialyzed and the degree of crosslinking was determined by two methods. First, the amount of reacted collagen which could be solubilized by treatment in 2% sodium dodecyl sulfate at 100° C. was measured.
The reacted collagen was further examined by cleaving it into fragments using cyanogen bromide treatment in formic acid, the resulting protein fragments were separated by size by sodium dodecyl sulfate-polyacrylamide gel electrophoresis. After electrophoresis, the protein fragments were identified in the gel using silver staining.
Referring to FIG. 3B, Lane C contains collagen that was incubated with glucose alone. It is noted that a large amount of high molecular weight fragments form a continuous band at the top of the gel, indicating a large range of high molecular weight fragments. Some of this material could not enter the gel and is present in the […] stacking gel above the gradient gel. […]

calf skin collagen [2] = assay: Calf skin collagen crosslinking by glucose: solubilization in 2% sodium dodecyl sulfate; assay type: biochemical; details: 140 mM glucose, 200 mM aminoguanidine, 3 weeks, 35° C.
Experimental: As a further evaluation of the compound aminoguanidine as a model for the prevention of protein trapping, crosslinking and formation of advanced glycosylation end products, the following experiment using calf skin collagen was performed. Collagen is a protein in the skin responsible for the suppleness of skin, and crosslinking leads to wrinkling, decreased elasticity, reduced susceptibility to proteolytic degradation, and other changes.
as §1

normal and diabetic rats [3] = assay: Cross-linking of lipoprotein to aorta collagen, ELISA for apolipoprotein-B; assay type: in vivo, rat; details: 25 mg/kg daily i.p., 16 weeks
Experimental: (§2) The experiment consisted of giving both normal and diabetic rats daily intraperitoneal doses of the agent aminoguanidine hydrochloride at a dose of 25 mg per kilogram of body weight, for a period of 16 weeks. […] Diabetes was induced prior to drug therapy with a single dose of streptozotocin. Control animals, both diabetic and normal, received no drug.
Aorta samples from the same group of animals described in Example IV above, were subjected to analysis for cross-linking of lipoprotein to collagen, using an enzyme immunoassay. A standard ELISA procedure was employed, using antiserum to rat apoliproprotein-B raised in rabbits, peroxidase-labeled anti-rabbit antibody, and standard chromogenic reagents to detect quantity of antibody bound.

rats = details: hydrochloride, cited from earlier work; for toxicity in animals: in words
normal and diabetic rats [4] = assay: IgG bound to glomerular basement membranes, enzyme immunoassay; assay type: in vivo, rat; details: 25 mg/kg daily intraperitoneal, 16 weeks
Experimental: To measure the level of advanced glycosylation end products in vivo, the kidneys of rats were examined for serum proteins which had become attached to glomerular basement membranes. This was determined to be a good model in which to study this process as it is known that significant kidney pathology occurs in untreated diabetes as a result of the buildup of extravasated plasma protein in the extravascular matrix in this organ.
as §2
At the end of the agent therapy, animals were sacrificed and the kidneys were removed. Each organ was removed from its capsule and the medulla was removed. […]
After overnight incubation to allow the antibody to bind to any IgG crosslinked to the glomerular basement membranes, the membranes were pelleted by centrifugation at 3200 rpm for five minutes and were washed free of the unbound antibody-enzyme conjugate with four rinses with PBS plus Tween followed by three rinses with distilled water. […] The reaction was stopped with the addition of 0.2 mL of M sodium hydroxide, and the absorbance at 400 nm was measured.

[5] = system: streptozotocin-diabetic rat; details: streptozotocin-diabetic rat model; cited from earlier work
BB/Worcester rat = assay: Tail tendon collagen solubility (pepsin), BB/Worcester rats; assay type: in vivo; details: 6 months; for Collagen Solubility: tail tendon
Experimental: Streptozotocin-diabetic male Lewis rats were treated for a 9-month time period with daily doses of aminoguanidine hydrochloride of 0, 6.25, 12.5, 25, and 50 mg/kg/day. After the treatment period, collagen in tail tendon fiber was subjected to solubility determination. Ten mg samples were incubated with gentle rocking for 5 hours at 4° C. in 5 ml of 0.5M acetic acid containing 1 mg pepsin. The samples were then centrifuged at 50,000× g for 1 hour, and the soluble and insoluble fraction separated by decanting. Each fraction was hydrolyzed in 6N HCl and total hydroxyproline measured.
The effect of aminoguanidine administration on collagen cross-linking was examined in a genetically-diabetic animal model, the BB/Worcester rat. Once the animals become diabetic, daily insulin injections are essential for survival. Glucose levels are maintained at a moderate level (250-350 mg %), much lower than in the streptozotocin-diabetic animals (>500 mg %).
Diabetic and non-diabetic controls were treated orally with aminoguanidine hydrochloride at 12.5 and 50 mg/kg/day for 6 months. Control animals were dosed with water only. Tail tendon collagen solubility was then determined by the pepsin method described in Example IX.

## N=C(N)NN [aminoguanidine hydrochloride]
Calf skin collagen [1]
  high molecular weight fragments after cyanogen bromide cleavage (gel): no large amount of high molecular weight material
Calf skin collagen [2]
  solubility of reacted collagen in 2% sodium dodecyl sulfate at 100° C.: as soluble as collagen incubated in buffer alone
Normal and diabetic rats [3]; diabetic rats
  LIPOPROTEIN BOUND PER MG COLLAGEN: 0.64
Normal and diabetic rats [3]; normal rats
  LIPOPROTEIN BOUND PER MG COLLAGEN: 0.53
rats
  toxicity in animals: low toxicity in animals
rats; listed as hydrochloride derivative
  toxicity in animals: very low toxicity
rats; subcutaneously, rats, listed as hydrochloride derivative
  LD50: 2984 mg/kg
Normal and diabetic rats [4]; diabetic rats
  IgG bound to glomerular basement membranes: the same low level of IgG in normal animals
Normal and diabetic rats [4]; normal rats
  IgG bound to glomerular basement membranes: about the same low level
[5]
  increased glomerular basement membrane thickness: prevented
BB/Worcester rat; 12.5 and 50 mg/kg/day orally
  prevention of the diabetes-induced fall in tail tendon collagen solubility: prevented significantly, in a dose-dependent manner
BB/Worcester rat; Diabetic, 12.5 mg/kg/day orally
  Collagen Solubility: 66.7 ± 1.2%
BB/Worcester rat; Diabetic, 50 mg/kg/day orally
  Collagen Solubility: 75.9 ± 0.4%
BB/Worcester rat; Normal, 50 mg/kg/day orally
  Collagen Solubility: 88.2 ± 0.2%
